Measurements as given in patent US11266692B2, “Intracellular genomic transplant and methods of therapy” (Regents of the University of Minnesota, priority 2015, dated 2022).

System: PD1
Assay: Validation of gRNAs: Cas9/gRNA plasmids in HEK293T, Surveyor digest, gel densitometry
Format: cell-based, human
Details: PD1 gene site, 3 days
Description: (§1) HEK293T cells were plated out at a density of 1×10^5 cells per well in a 24 well plate. 150 uL of Opti-MEM medium was combined with 1.5 ug of gRNA plasmid, 1.5 ug of Cas9 plasmid. Another 150 uL of Opti-MEM medium was combined with 5 ul of Lipofectamine 2000 Transfection reagent (Invitrogen). The solutions were combined together and incubated for 15 minutes at room temperature. The DNA-lipid complex was added dropwise to wells of the 24 well plate. Cells were incubated for 3 days at 37° C. and genomic DNA was collected using the GeneJET Genomic DNA Purification Kit (Thermo Scientific). Activity of the gRNAs was quantified by a Surveyor Digest, gel electrophoresis, and densitometry (FIG. 60 and FIG. 61) (Guschin, D. Y., et al., “A Rapid and General Assay for Monitoring Endogenous Gene Modification,” Methods in Molecular Biology, 649: 247-256 (2010)).
(§2) The percentage numbers in Table 7 indicated the percent of gene modifications in the sample.

Row | Substance | efficiency of Cas9/gRNA pair in creating double strand break (DSB), percent of gene modifications
1 | PD1 gRNA#1: guide RNA to PD-1; sense primer SEQ ID 33 CACCGCGGAGAGCTTCGTGCTAAAC | 10.83%
2 | PD1 gRNA#2: guide RNA to PD-1; sense primer SEQ ID 35 CACCGCCTGCTCGTGGTGACCGAAG | >60%
3 | PD1 gRNA#4: guide RNA to PD-1; sense primer SEQ ID 39 CACCGAGGCGGCCAGCTTGTCCGTC | 20.87%
4 | PD1 gRNA#5: guide RNA to PD-1; sense primer SEQ ID 41 CACCGCGTTGGGCAGTTGTGTGACA | 30.60%
5 | PD1 gRNA#6: guide RNA to PD-1; sense primer SEQ ID 43 CACCGACGGAAGCGGCAGTCCTGGC | 25.91%

System: AAVS1
Assay: as above
Format: cell-based, human
Details: AAVS1 gene site, 3 days
Description: as §1, §2

Row | Substance | efficiency of Cas9/gRNA pair in creating double strand break (DSB), percent of gene modifications
6 | AAVS1 gRNA#1: guide RNA to AAVS1; sense primer SEQ ID 19 CACCGTGGGGGTTAGACCCAATATC | 32.99%
7 | AAVS1 gRNA#2: guide RNA to AAVS1; sense primer SEQ ID 21 CACCGACCCCACAGTGGGGCCACTA | 27.10%
8 | AAVS1 gRNA#5: guide RNA to AAVS1; sense primer SEQ ID 27 CACCGCCGGCCCTGGGAATATAAGG | 27.55%
9 | AAVS1 gRNA#6: guide RNA to AAVS1; sense primer SEQ ID 29 CACCGCGGGCCCCTATGTCCACTTC | 39.62%

System: CTLA4
Assay: as above
Format: cell-based, human
Details: CTLA4 gene site, 3 days
Description: as §1
(§3) The efficiencies of Cas9 in creating double strand break (DSB) with the assistance of different gRNA sequences were listed in Table 7. The percentage numbers in Table 7 indicated the percent of gene modifications in the sample.

Row | Substance | efficiency of Cas9/gRNA pair in creating double strand break (DSB), percent of gene modifications
10 | CTLA4 gRNA#1: guide RNA to CTLA4; sense primer SEQ ID 47 CACCGCCGGGTGACAGTGCTTCGGC | 40.96%
11 | CTLA4 gRNA#2: guide RNA to CTLA4; sense primer SEQ ID 49 CACCGTGCGGCAACCTACATGATG | 56.10%
12 | CTLA4 gRNA#3: guide RNA to CTLA4; sense primer SEQ ID 51 CACCGCTAGATGATTCCATCTGCAC | 39.33%
13 | CTLA4 gRNA#4: guide RNA to CTLA4; sense primer SEQ ID 53 CACCGAGGTTCACTTGATTTCCAC | 40.13%
14 | CTLA4 gRNA#5: guide RNA to CTLA4; sense primer SEQ ID 55 CACCGCCGCACAGACTTCAGTCACC | 15.90%
15 | CTLA4 gRNA#6: guide RNA to CTLA4; sense primer SEQ ID 57 CACCGCTGGCGATGCCTCGGCTGC | 36.93%

System: HPRT
Assay: as above
Format: cell-based, human
Details: HPRT gene site, 3 days
Description: as §1, §3

Row | Substance | efficiency of Cas9/gRNA pair in creating double strand break (DSB), percent of gene modifications
16 | HPRT gRNA#1: guide RNA to HPRT; sense primer SEQ ID 5 CACCGCACGTGTGAACCAACCCGCC | 27.85% ^
17 | HPRT gRNA#2: guide RNA to HPRT; sense primer SEQ ID 7 CACCGAAACAACAGGCCGGGCGGGT | 30.04% ^
18 | HPRT gRNA#3: guide RNA to HPRT; sense primer SEQ ID 9 CACCGACAAAAAAATTAGCCGGGTG | <1%
19 | HPRT gRNA#4: guide RNA to HPRT; sense primer SEQ ID 11 CACCGTAAATTTCTCTGATAGACTA | <5%
20 | HPRT gRNA#5: guide RNA to HPRT; sense primer SEQ ID 13 CACCGTGTTTCAATGAGAGCATTAC | <1%
21 | HPRT gRNA#6: guide RNA to HPRT; sense primer SEQ ID 15 CACCGGTCTCGAACTCCTGAGCTC | <5%

System: CCR5
Assay: as above
Format: cell-based, human
Details: CCR5 gene site, 3 days
Description: as §1, §3

Row | Substance | efficiency of Cas9/gRNA pair in creating double strand break (DSB), percent of gene modifications
22 | CCR5 gRNA#1: guide RNA to CCR5; sense primer SEQ ID 61 CACCGACAATGTGTCAACTCTTGAC | 21.47%
23 | CCR5 gRNA#2: guide RNA to CCR5; sense primer SEQ ID 63 CACCGTCATCCTCCTGACAATCGAT | >60%
24 | CCR5 gRNA#3: guide RNA to CCR5; sense primer SEQ ID 65 CACCGGTGACAAGTGTGATCACTT | 55.98%
25 | CCR5 gRNA#4: guide RNA to CCR5; sense primer SEQ ID 67 CACCGACACAGCATGGACGACAGCC | 45.99%
26 | CCR5 gRNA#5: guide RNA to CCR5; sense primer SEQ ID 69 CACCGATCTGGTAAAGATGATTCC | 36.07%
27 | CCR5 gRNA#6: guide RNA to CCR5; sense primer SEQ ID 71 CACCGTTGTATTTCCAAAGTCCCAC | 33.17%
